Assay results: ChEMBL document CHEMBL4118205, “Design, synthesis and biological evaluation of artemisinin derivatives containing fluorine atoms as anticancer agents” (Bioorg Med Chem Lett, 2018)

Tests used:
MCF7 [1] = experiment: Cytotoxicity against human MCF7 cells assessed as reduction in cell viability after 72 hrs by MTT assay; format: functional, cell-based; conditions: MCF7, 72 h
MDA-MB-231 [2] = experiment: Cytotoxicity against human MDA-MB-231 cells assessed as reduction in cell viability after 72 hrs by MTT assay; format: functional, cell-based; conditions: MDA-MB-231, 72 h
SH-SY5Y [3] = experiment: Cytotoxicity against human SH-SY5Y cells assessed as reduction in cell viability after 72 hrs by MTT assay; format: functional, cell-based
U-87 MG [4] = experiment: Cytotoxicity against human U87 cells assessed as reduction in cell viability after 72 hrs by MTT assay; format: functional, cell-based, U-87MG ATCC
A-375 = experiment: Cytotoxicity against human A375 cells assessed as reduction in cell viability after 72 hrs by MTT assay; format: functional, cell-based; conditions: A-375, 72 h
L02 [5] = experiment: Cytotoxicity against human L02 cells assessed as reduction in cell viability after 72 hrs by MTT assay; format: functional, cell-based; conditions: L02, 72 h
A549 [6] = experiment: Cytotoxicity against human A549 cells assessed as reduction in cell viability after 72 hrs by MTT assay; format: functional, cell-based; conditions: A549, 72 h
MCF7 [7] = experiment: Cytotoxicity against human MCF7 cells assessed as reduction in cell viability after 24 to 72 hrs by MTT assay; format: functional, cell-based
U-87 MG [8] = experiment: Cytotoxicity against human U87 cells assessed as reduction in cell viability after 24 to 72 hrs by MTT assay; format: functional, cell-based, U-87MG ATCC
A549 [9] = experiment: Cytotoxicity against human A549 cells assessed as reduction in cell viability after 24 to 72 hrs by MTT assay; format: functional, cell-based
MDA-MB-231 [10] = experiment: Cytotoxicity against human MDA-MB-231 cells assessed as reduction in cell viability after 24 to 72 hrs by MTT assay; format: functional, cell-based
SH-SY5Y [11] = experiment: Cytotoxicity against human SH-SY5Y cells assessed as reduction in cell viability after 24 to 72 hrs by MTT assay; format: functional, cell-based
L02 [12] = experiment: Cytotoxicity against human L02 cells assessed as reduction in cell viability after 24 to 72 hrs by MTT assay; format: functional, cell-based

| Structure (SMILES) | IC50 (MCF7 [1]) [µM] | IC50 (MDA-MB-231 [2]) [µM] | IC50 (SH-SY5Y [3]) [µM] | IC50 (U-87 MG [4]) [µM] | IC50 (A-375) [µM] | IC50 (L02 [5]) [µM] | IC50 (A549 [6]) [µM] | IC50 (MCF7 [7]) [µM] | IC50 (U-87 MG [8]) [µM] | IC50 (A549 [9]) [µM] | IC50 (MDA-MB-231 [10]) [µM] | IC50 (SH-SY5Y [11]) [µM] | IC50 (L02 [12]) [µM] |
| --- | --- | --- | --- | --- | --- | --- | --- | --- | --- | --- | --- | --- | --- |
| C[C@H]1[C@H](N2CCN(C(=O)Nc3ccc(C(F)(F)F)cc3)CC2)O[C@@H]2O[C@@]3(C)CC[C@H]4[C@H](C)CC[C@@H]1[C@@]24OO3 | 2.7 | 5.8 | 3.2 | 15.2 | 15 | 4 | 21.1 | – | – | – | – | – | – |
| C[C@H]1[C@H](N2CCN(c3ccc(C(F)(F)F)cc3)CC2)O[C@@H]2O[C@@]3(C)CC[C@H]4[C@H](C)CC[C@@H]1[C@@]24OO3 | 27 | > 50 | > 50 | > 50 | 40.9 | 20.5 | > 50 | – | – | – | – | – | – |
| C[C@H]1[C@H](N2CCN(c3cccc(C(F)(F)F)c3)CC2)O[C@@H]2O[C@@]3(C)CC[C@H]4[C@H](C)CC[C@@H]1[C@@]24OO3 | 7.5 | 12.5 | 11.2 | > 50 | 20 | 9.1 | 12.9 | – | – | – | – | – | – |
| C[C@H]1[C@H](N2CCN(Cc3ccc(F)cc3)CC2)O[C@@H]2O[C@@]3(C)CC[C@H]4[C@H](C)CC[C@@H]1[C@@]24OO3 | 3.5 | 12 | 15 | > 50 | 12.8 | 17.1 | 35.9 | – | – | – | – | – | – |
| CCOC(=O)N1CCN([C@@H]2O[C@@H]3O[C@@]4(C)CC[C@H]5[C@H](C)CC[C@@H]([C@H]2C)[C@@]35OO4)CC1 | – | – | – | – | – | – | – | 15.2 | > 50 | 19.9 | 19.2 | > 50 | > 50 |
| C[C@H]1[C@H](Nc2ccc(SC(F)(F)F)cc2)O[C@@H]2O[C@@]3(C)CC[C@H]4[C@H](C)CC[C@@H]1[C@@]24OO3 | 5.3 | 22.9 | 20.3 | 28 | 26.5 | 9.3 | 41.8 | – | – | – | – | – | – |
| C[C@H]1[C@H](NCc2ccc(OC(F)(F)F)cc2)O[C@@H]2O[C@@]3(C)CC[C@H]4[C@H](C)CC[C@@H]1[C@@]24OO3 | 10.2 | 21.8 | 5 | 17.7 | 10.9 | 35.7 | 17.9 | – | – | – | – | – | – |
| C[C@H]1[C@H](N2CCN(C(=O)Nc3ccc(F)cc3)CC2)O[C@@H]2O[C@@]3(C)CC[C@H]4[C@H](C)CC[C@@H]1[C@@]24OO3 | 5.5 | 10.9 | 5 | 28.7 | 9.1 | 15.6 | 17.6 | – | – | – | – | – | – |
| C[C@@H]1CC[C@H]2[C@@H](C)C(=O)O[C@@H]3O[C@@]4(C)CC[C@@H]1[C@]32OO4 [ARTEMISININ] | > 50 | > 50 | > 50 | > 50 | > 50 | > 50 | > 50 | – | – | – | – | – | – |
| Cn1nnc2c(C(N)=O)ncn2c1=O [TEMOZOLOMIDE] | – | – | > 50 | > 50 | – | – | – | – | – | – | – | – | – |
| C[C@H]1[C@H](N2CCN(Cc3cccc(F)c3)CC2)O[C@@H]2O[C@@]3(C)CC[C@H]4[C@H](C)CC[C@@H]1[C@@]24OO3 | 6.8 | 32.9 | > 50 | > 50 | 46.5 | 23.2 | 44.4 | – | – | – | – | – | – |
| COc1cccc2c1C(=O)c1c(O)c3c(c(O)c1C2=O)C[C@@](O)(C(=O)CO)C[C@@H]3O[C@H]1C[C@H](N)[C@H](O)[C@H](C)O1 [DOXORUBICIN] | – | 2.8 | – | – | 0.4 | 0.9 | 2.3 | – | – | – | – | – | – |
| C[C@H]1[C@H](N2CCN(c3ccc(F)cc3)CC2)O[C@@H]2O[C@@]3(C)CC[C@H]4[C@H](C)CC[C@@H]1[C@@]24OO3 | 28.8 | > 50 | > 50 | 25.5 | > 50 | 11.2 | > 50 | – | – | – | – | – | – |
| C[C@H]1[C@@H](O)O[C@@H]2O[C@@]3(C)CC[C@H]4[C@H](C)CC[C@@H]1[C@@]24OO3 [ARTENIMOL] | > 50 | 45.7 | > 50 | > 50 | 38.5 | 34 | 46.8 | – | – | – | – | – | – |
